Read-outs that look alike come from different tables or passages of the source.
Tests used:
[1] = biological target: human ether-a-go-go related gene (hERG) channel (Homo sapiens (Human), UniProt Q12809); assay: hERG test; type: cell-based; conditions: HEK293 cells expressing hERG, patch clamp, applied 10 minutes
Source text: For the purpose of assessing risk of an electrocardiogram QT interval prolongation, effects on delayed rectifier K+ current (IKr), which plays an important role in the ventricular repolarization process, was studied using HEK293 cells expressing human ether-a-go-go related gene (hERG) channel.
After a cell was retained at a membrane potential of −80 mV by whole cell patch clamp method using an automated patch clamp system (PatchXpress 7000A, Axon Instruments Inc.), IKr induced by depolarization pulse stimulation at +50 mV for 2 seconds and, further, repolarization pulse stimulation at −50 mV for 2 seconds was recorded. […] From the recording IKr, an absolute value of the tail peak current was measured based on the current value at the resting membrane potential using an analysis software (DataXpress ver.1, Molecular Devices Corporation). Further, the % inhibition relative to the tail peak current before application of the test substance was calculated, and compared with the vehicle-applied group (0.1% dimethyl sulfoxide solution) to assess influence of the test substance on IKr.

CYP3A4 = CYP3A4 (Homo sapiens (Human), UniProt P08684); assay: CYP3A4 fluorescent MBI test; type: in vitro ADME; conditions: pre-reaction time 0 or 30 minutes, substrate 7-BFC
Protocol: The CYP3A4 fluorescent MBI test is a test of investigating enhancement of CYP3A4 inhibition of a compound by a metabolism reaction, and the test was performed using, as CYP3A4 enzyme expressed in Escherichia coli and employing, as an index, a reaction in which 7-benzyloxytrifluoromethylchmarin (7-BFC) is debenzylated by the CYP3A4 enzyme to produce a metabolite, 7-hydroxytrifluoromethylchmarin (HFC) emitting fluorescent light.
The reaction conditions were as follows: substrate, 5.6 μmol/L 7-BFC; pre-reaction time, 0 or 30 minutes; reaction time, 15 minutes; reaction temperature, 25° C. […]
An enzyme in a K-Pi buffer (pH 7.4) and a test drug solution as a pre-reaction solution were added to a 96-well plate at the composition of the pre-reaction, a part of it was transferred to another 96-well plate so that it was 1/10 diluted by a substrate in a K-Pi buffer, NADPH as a co-factor was added to initiate a reaction as an index (without preincubation) and, after a predetermined time of a reaction, acetonitrile/0.5 mol/L Tris (trishydroxyaminomethane)=4/1 was added to stop the reaction. […] For the plate on which each index reaction had been performed, a fluorescent value of 7-HFC which is a metabolite was measured with a fluorescent plate reader. […]

Recombinant human BACE-1 = Recombinant human BACE-1 (Homo sapiens (Human), UniProt P56817); assay: Assay of β-secretase-inhibiting activity
[2] = Recombinant human BACE-1 7.4 nM, substrate peptide 18 nM, pH 5.0, 30° C. 3 hours

Chain of Recombinant human BACE-1 (P56817 46-501): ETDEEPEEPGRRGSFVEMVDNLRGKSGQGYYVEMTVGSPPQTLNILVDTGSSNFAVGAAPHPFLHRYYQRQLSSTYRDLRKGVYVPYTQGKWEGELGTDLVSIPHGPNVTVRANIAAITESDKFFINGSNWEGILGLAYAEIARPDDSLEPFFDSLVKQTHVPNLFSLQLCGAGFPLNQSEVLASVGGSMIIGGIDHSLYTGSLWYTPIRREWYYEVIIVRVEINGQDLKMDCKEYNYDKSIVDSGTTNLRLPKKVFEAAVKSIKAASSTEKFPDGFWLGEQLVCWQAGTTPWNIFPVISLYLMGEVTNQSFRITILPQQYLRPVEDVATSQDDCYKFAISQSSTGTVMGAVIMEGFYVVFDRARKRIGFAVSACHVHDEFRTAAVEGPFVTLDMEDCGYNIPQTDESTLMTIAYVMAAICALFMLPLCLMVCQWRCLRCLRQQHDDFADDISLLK
Chain of CYP3A4 (P08684 whole entry): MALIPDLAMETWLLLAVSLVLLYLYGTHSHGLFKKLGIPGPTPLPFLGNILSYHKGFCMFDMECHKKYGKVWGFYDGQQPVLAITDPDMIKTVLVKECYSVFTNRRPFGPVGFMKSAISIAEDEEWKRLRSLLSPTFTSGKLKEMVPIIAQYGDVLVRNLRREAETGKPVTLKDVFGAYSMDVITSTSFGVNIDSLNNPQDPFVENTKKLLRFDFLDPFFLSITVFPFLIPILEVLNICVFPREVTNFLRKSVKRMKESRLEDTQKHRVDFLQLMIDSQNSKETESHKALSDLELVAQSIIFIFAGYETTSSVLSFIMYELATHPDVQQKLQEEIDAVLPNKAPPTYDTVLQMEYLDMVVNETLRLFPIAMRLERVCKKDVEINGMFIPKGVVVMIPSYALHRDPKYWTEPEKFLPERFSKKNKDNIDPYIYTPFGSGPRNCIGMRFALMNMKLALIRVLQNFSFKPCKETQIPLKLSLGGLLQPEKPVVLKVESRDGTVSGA
Chain of human ether-a-go-go related gene (hERG) channel (Q12809 whole entry): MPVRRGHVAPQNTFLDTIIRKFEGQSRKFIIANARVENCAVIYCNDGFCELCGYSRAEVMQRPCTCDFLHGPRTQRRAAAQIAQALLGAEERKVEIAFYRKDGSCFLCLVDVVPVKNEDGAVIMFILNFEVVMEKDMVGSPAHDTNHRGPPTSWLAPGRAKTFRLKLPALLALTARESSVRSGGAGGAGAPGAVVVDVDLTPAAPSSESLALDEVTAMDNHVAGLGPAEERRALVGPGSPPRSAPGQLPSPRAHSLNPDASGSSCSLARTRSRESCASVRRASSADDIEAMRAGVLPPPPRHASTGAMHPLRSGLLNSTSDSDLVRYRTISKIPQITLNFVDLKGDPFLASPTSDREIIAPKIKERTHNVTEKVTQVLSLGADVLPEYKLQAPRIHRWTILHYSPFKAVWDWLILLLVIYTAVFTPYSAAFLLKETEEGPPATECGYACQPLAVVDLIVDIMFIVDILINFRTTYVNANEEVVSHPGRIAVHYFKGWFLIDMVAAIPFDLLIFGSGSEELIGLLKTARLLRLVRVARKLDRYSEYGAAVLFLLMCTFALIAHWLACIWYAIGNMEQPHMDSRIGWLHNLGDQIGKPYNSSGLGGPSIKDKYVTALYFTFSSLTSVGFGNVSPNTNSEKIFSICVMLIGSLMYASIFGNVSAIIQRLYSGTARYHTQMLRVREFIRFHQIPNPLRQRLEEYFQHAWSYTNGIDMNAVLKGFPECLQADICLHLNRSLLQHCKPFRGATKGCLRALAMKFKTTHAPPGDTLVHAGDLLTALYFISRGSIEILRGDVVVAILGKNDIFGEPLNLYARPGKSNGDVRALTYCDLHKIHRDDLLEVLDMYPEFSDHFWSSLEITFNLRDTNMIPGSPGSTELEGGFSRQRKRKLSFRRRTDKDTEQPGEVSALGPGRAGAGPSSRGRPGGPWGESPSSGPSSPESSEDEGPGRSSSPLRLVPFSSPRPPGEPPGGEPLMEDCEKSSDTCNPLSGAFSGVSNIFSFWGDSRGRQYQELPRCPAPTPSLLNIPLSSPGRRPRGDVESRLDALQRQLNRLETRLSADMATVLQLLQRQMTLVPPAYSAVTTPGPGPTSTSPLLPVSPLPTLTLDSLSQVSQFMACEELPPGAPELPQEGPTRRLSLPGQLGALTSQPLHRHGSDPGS

Row | Structure (SMILES) | % inhibition of tail peak current (IKr) [1] [%] | IC50 difference (with/without preincubation) (CYP3A4) [µM] | IC50 (Recombinant human BACE-1; [2]) [µM] | IC50 (Recombinant human BACE-1) [µM]
1 | CNC(=O)c1ccc(-c2ccc(F)c([C@]3(C)C=CSC(N)=N3)c2)cn1 [Compound 92] | 7.9 | – | – | –
2 | C=C1C[C@@](C)(c2cc(NC(=O)c3cnc(OC)cn3)cnc2Cl)N=C(N)S1 [Compound 99] | – | < 3 | 0.014 | –
3 | C=C1C[C@@](C)(c2cc(NC(=O)c3cnc(OC)cn3)cnc2C)N=C(N)S1 [Compound 102] | 2.3 | – | 0.036 | –
4 | CC1=C[C@@](C)(c2cncc(NC(=O)c3ccc(C#N)cn3)c2)N=C(N)S1 [Compound 108] | – | < 3 | – | ≤ 1
